Data taken from patent publication US8574544B1, “Pharmaceutical composition of nanoparticles” (GP Medical, Inc., priority 2005, dated 2013).

Experiments:
[1] = in vivo; cited from earlier work
[2] = system: brush border membrane bounded enzymes; assay: Enzyme inhibition study: enzymatic degradation of insulin versus time; assay type: biochemical; conditions: 5 mg/ml; insulin 1 mg/ml; up to 2 hours
Description: Brush border membrane bounded enzymes were used to simulate a contacting membrane at the bottom of a donor compartment, wherein the insulin-loaded medium (Krebs-Ringer buffer) in the donor compartment was used as the starting material at time zero. Three elements were used in this enzyme inhibition study to assess the enzymatic degradation of insulin versus time by brush border membrane bounded enzymes.

[3] = 20° C.; cited from earlier work
[4] = cited from earlier work
diabetic rats [5] = assay: Hypoglycemic effect in diabetic rats (Example no. 10); assay type: in vivo, Wistar male rats
Description: In the in vivo study, rats were injected with streptozotocin (STZ 75 mg/kg intraperitoneal) in 0.01M citrate buffer (pH 4.3) to induce diabetes. The blood from the rat's tail was analyzed with a commercially available glucometer for blood glucose. The blood glucose level on Wistar male rats at no fasting (n=5) was measured at 107.2±8.1 mg/dL for normal rats while the blood glucose level was at 469.7±34.2 mg/dL for diabetic rats. In the animal study, diabetic rats were fasting for 12 hours and subjected to four different conditions: (a) oral deionized water (DI) administration; (b) oral insulin administration at 30 U/kg; (c) oral insulin-loaded nanoparticles administration at 30 U/kg; and (d) subcutaneous (SC) insulin injection at 5 U/kg as positive control. The blood glucose concentration from rat's tail was measured over the time in the study.
It is illustrative that substantially all insulin from the oral administration route has been decomposed in rat stomach. As anticipated, the glucose decrease for the SC insulin injection route appears in rat blood in the very early time interval and starts to taper off after 3 hours in this exemplary study.
The most important observation of the study comes from the oral administration route with insulin-loaded nanoparticles. […]

diabetic rats [6] = assay: Freeze-dried nanoparticles in enteric-coated capsule in diabetic rats (Example no. 19); assay type: in vivo; conditions: SC injection 5 U/kg
Description: In the in vivo study, rats as prepared and conditioned according to Example no. 10 were used in this evaluation. […] The blood glucose concentration from rat's tail was measured over time.
As anticipated, the glucose decrease for the SC insulin injection method is evident in rat blood at a very early time interval starts to taper off after 2 hours, and ends at about 6 hours in this exemplary study. The most important observation of the study comes from the oral administration route with insulin-loaded lyophilized (namely, freeze-dried) nanoparticles. Nanoparticles of this example have an insulin LC at 4.4%, whereas nanoparticles from Example no. […] With the same amount of nanoparticles in both examples, the insulin-feeding ratio of Example no. 19 to Example no. 10 is about 1:3. In other words, the insulin fed to a rat in this study from nanoparticles is about ⅓ of the insulin from nanoparticles fed to rats in Example no. 10.
The blood glucose begins to decrease from the base line at about 3 hours after administration and sustains a lower glucose level for more than 10 hours into study. It implies that the current insulin-loaded nanoparticles may modulate the glucose level in animals in a sustained or prolonged effective mode. […]

[7] = insulin from bovine pancreas (Sigma-Aldrich); cited from earlier work

Compound: 21^A-Gly-30^Ba-L-Arg-30^Bb-L-Arg-human insulin [Insulin glargine]
- duration of activity [1]: up to 24 hours

Compound: O=C(O)CN(CCN(CC(=O)O)CC(=O)O)CCN(CC(=O)O)CC(=O)O [DTPA, Diethylene triamine pentaacetic acid]
- protection of insulin activity or viable content against enzymatic degradation [2]: substantially protect or maintain the insulin activity or viable content

Compound: OC[C@H]1O[C@H](O[C@H]2O[C@H](CO)[C@@H](O)[C@H](O)[C@H]2O)[C@H](O)[C@@H](O)[C@@H]1O [Trehalose, α-D-glucopyranosyl-(1→1)-α-D-glucopyranoside]
- solubility [3]: 68.9 g/100 g H2O

Compound: Drotrecogin alfa (activated)
- time to peak plasma levels ([4]; i.v. dosage guidelines): two
- time to complete clearance from plasma after termination of infusion ([4]; i.v. infusion): two

Compound: insulin: model insulin from bovine pancreas (Sigma-Aldrich), given orally or by SC injection as controls
- time after which glucose decrease starts to taper off (diabetic rats [5]; SC injection 5 U/kg): 3 h
- glucose change as a percentage of base lines (diabetic rats [5]; oral 30 U/kg, over 8 hours, n=5): relatively constant
- time after which glucose decrease starts to taper off (diabetic rats [6]): 2 h
- time at which glucose decrease ends (diabetic rats [6]): about 6 hours
- activity [7]: ≥ 27 USP units/mg
